Source: US7547699B2, “Tetracyclic 6 azapyrazinoindolines as 5HT2C receptor agonists for obesity” (Hoffmann-La Roche Inc., priority 2005, dated 2009)

Assays:
human 5-HT2B receptors = target: T1, human 5-HT2B receptors (Homo sapiens, UniProt P41595); test: Binding to 5-HT2B receptor, [3H]-5-HT radioligand, Method (b); conditions: human 5-HT2B receptors in a CHO cell line, read-out: Method (b) Ki (2B)
T1 construct: expressed in transfected cells; host or cells: CHO cell line
Method: (§1) The binding of compounds of formula (I) to serotonin receptors was determined in vitro by standard methods. The preparations were investigated in accordance with the assays given hereinafter.
Method (b): For the binding to the 5-HT2B receptor the 5-HT2B receptors were radiolabeled with [^3H]-5-HT. The affinity of the compounds for human 5-HT2B receptors in a CHO cell line was determined according to the procedure of K. Schmuck, C. Ullmer, P. Engels and H. Lubbert, FEBS Lett., 1994, 342, 85-90.

5-HT2C receptor [1] = target: T2, 5-HT2C receptor (Homo sapiens, UniProt P28335); test: Binding to 5-HT2C receptor, [3H]-5-HT radioligand, Method (a); set-up: expressed in transfected cells; host or cells: CHO cell line; conditions: 5-HT2C receptors in a CHO cell line, read-out: Method (a) Ki (2C)
T2 sequence (P28335 33-458): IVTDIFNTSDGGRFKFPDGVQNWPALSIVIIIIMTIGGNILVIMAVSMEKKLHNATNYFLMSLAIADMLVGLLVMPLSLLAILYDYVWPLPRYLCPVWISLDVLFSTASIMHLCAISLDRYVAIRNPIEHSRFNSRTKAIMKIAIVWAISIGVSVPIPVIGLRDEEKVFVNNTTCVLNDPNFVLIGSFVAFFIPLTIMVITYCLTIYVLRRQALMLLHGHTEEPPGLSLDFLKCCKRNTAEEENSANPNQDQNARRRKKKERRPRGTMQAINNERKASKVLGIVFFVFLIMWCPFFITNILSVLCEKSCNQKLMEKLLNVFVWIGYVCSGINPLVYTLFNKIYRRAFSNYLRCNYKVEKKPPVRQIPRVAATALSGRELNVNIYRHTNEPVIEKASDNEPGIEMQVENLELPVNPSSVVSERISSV
Method: as §1
Method (a): For the binding to the 5-HT2C receptor the 5-HT2C receptors were radiolabeled with [^3H]-5-HT. The affinity of the compounds for 5-HT2C receptors in a CHO cell line was determined according to the procedure of D. Hoyer, G. Engel and H. O. Kalkman, European J. Pharmacol., 1985, 118, 13-23.

5-HT2A receptor [2] = target: T3, 5-HT2A receptor (Homo sapiens, UniProt P28223); test: Binding to 5-HT2A receptor, [125I]-DOI radioligand, Method (c); set-up: expressed in transfected cells; host or cells: CHO cell line; conditions: 5-HT2A receptors in a CHO cell line, read-out: Method (c) Ki (2A)
T3 sequence (P28223 whole entry): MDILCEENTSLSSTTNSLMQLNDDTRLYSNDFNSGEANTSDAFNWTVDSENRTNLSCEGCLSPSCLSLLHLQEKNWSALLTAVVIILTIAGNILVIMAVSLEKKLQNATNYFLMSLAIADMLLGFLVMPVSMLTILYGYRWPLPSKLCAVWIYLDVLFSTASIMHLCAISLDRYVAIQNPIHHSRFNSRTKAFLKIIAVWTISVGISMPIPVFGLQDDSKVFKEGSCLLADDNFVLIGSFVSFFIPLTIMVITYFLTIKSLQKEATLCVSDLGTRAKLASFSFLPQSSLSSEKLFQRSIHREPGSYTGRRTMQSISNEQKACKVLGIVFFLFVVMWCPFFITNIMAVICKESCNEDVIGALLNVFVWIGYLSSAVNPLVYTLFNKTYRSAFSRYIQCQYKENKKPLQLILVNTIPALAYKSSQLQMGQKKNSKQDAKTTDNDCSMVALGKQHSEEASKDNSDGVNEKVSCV
Method: as §1
Method (c): For the binding to the 5-HT2A receptor the 5-HT2A receptors were radiolabeled with [^125I]-DOI. The affinity of the compounds for 5-HT2A receptors in a CHO cell line was determined according to the procedure of D. J. McKenna and S. J. Peroutka, J. Neurosci., 1989, 9, 3482-90.

5-HT2C receptor [3] = target: T2, 5-HT2C receptor; test: Functional activity, FLIPR calcium assay in CHO cells expressing human 5-HT2C; format: cell-based; set-up: expressed in transfected cells; host or cells: CHO cells; conditions: for EC50: CHO cells, FLIPR, Fluo-3-AM, read-out: h5-HT2C EC50; for h5-HT2C Rel. Eff.: maximum fluorescent signal relative to 10 μM 5-HT (defined as 100%)
Method: (§2) The functional activity of compounds of formula (I) was assayed using a Fluorimetric Imaging Plate Reader (FLIPR). CHO cells expressing the human 5-HT2C or human 5-HT2A receptors were counted and plated into standard 96 well microtitre plates on the day before testing to give a confluent monolayer. The cells were then loaded with the calcium sensitive dye, Fluo-3-AM. Unincorporated dye was removed using an automated cell washer to leave a total volume of 100 μL/well of assay buffer (Hanks balanced salt solution containing 20 mM Hepes and 2.5 mM probenecid). The drug (dissolved in 50 μL of the assay buffer) was added at a rate of 70 μL/sec to each well of the FLIPR 96 well plate during fluorescence measurements. The measurements were taken at 1 sec intervals and the maximum fluorescent signal was measured (approx 10-15 secs after drug addition) and compared with the response produced by 10 μM 5-HT (defined as 100%) to which it was expressed as a percentage response (relative efficacy). Dose response curves were constructed using Graphpad Prism (Graph Software Inc.).

5-HT2A receptor [4] = target: T3, 5-HT2A receptor; test: Functional activity, FLIPR calcium assay in CHO cells expressing human 5-HT2A; format: cell-based; set-up: expressed in transfected cells; host or cells: CHO cells; conditions: for EC50: CHO cells, FLIPR, Fluo-3-AM, read-out: h5-HT2A EC50; for h5-HT2A Rel. Eff.: maximum fluorescent signal relative to 10 μM 5-HT (defined as 100%)
Method: as §2

T1 sequence (P41595 whole entry): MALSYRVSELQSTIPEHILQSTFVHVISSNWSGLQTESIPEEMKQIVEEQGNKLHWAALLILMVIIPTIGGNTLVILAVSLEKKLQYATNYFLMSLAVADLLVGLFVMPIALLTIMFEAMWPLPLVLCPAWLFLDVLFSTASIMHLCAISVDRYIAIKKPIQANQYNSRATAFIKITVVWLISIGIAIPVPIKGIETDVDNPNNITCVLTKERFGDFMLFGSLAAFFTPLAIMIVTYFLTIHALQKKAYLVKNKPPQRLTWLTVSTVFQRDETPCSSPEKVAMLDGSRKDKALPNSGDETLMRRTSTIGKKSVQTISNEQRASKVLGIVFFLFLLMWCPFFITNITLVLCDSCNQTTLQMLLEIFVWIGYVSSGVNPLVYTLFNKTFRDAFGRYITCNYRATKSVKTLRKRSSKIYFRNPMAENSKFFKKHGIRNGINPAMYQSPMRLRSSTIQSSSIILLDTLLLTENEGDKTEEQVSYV

Cc1c2c(nc3c1C[C@@H]1CNC[C@@H](C)N31)COC2
melting point: 118 to 119 °C

C[C@@H]1CNC[C@H]2Cc3cc4c(nc3N21)CSC4 [Example 33, (5R,8aR)-5-Methyl-1,3,5,6,7,8,8a,9-octahydro-2-thia-4,4b,7-triaza-cyclopenta[b]fluorene]
Ki (human 5-HT2B receptors): 0.0211 µM | Ki (5-HT2C receptor [1]): 0.0053 µM | Ki (5-HT2A receptor [2]): 0.0989 µM

C[C@@H]1CNC[C@H]2Cc3cc4c(nc3N21)C(C)(C)OC4 [Example 19, (5R,8aR)-3,3,5-Trimethyl-1,3,5,6,7,8,8a,9-octahydro-2-oxa-4,4b,7-triaza-cyclopenta[b]fluorene]
EC50 (5-HT2C receptor [3]): 0.0084 µM | h5-HT2C Rel. Eff. (5-HT2C receptor [3]): 87% | Ki (human 5-HT2B receptors): 0.0263 µM | EC50 (5-HT2A receptor [4]): > 1 µM | h5-HT2A Rel. Eff. (5-HT2A receptor [4]): 3% | Ki (5-HT2C receptor [1]): 0.0055 µM | Ki (5-HT2A receptor [2]): 0.0802 µM

C[C@@H]1OCc2cc3c(nc21)N1[C@@H](CNC[C@H]1C)C3
melting point: 90 to 91 °C

C[C@@H]1CNC[C@H]2Cc3cc4c(nc3N21)[C@H](C1CC1)OC4 [Example 17, (3S,5R,8aR)-3-Cyclopropyl-5-methyl-1,3,5,6,7,8,8a,9-octahydro-2-oxa-4,4b,7-triaza-cyclopehta[b]fluorene]
EC50 (5-HT2C receptor [3]): 0.0124 µM | h5-HT2C Rel. Eff. (5-HT2C receptor [3]): 95% | Ki (human 5-HT2B receptors): 0.76 µM | EC50 (5-HT2A receptor [4]): 0.534 µM | h5-HT2A Rel. Eff. (5-HT2A receptor [4]): 35% | Ki (5-HT2C receptor [1]): 0.0234 µM | Ki (5-HT2A receptor [2]): 0.635 µM
